The experiment has as its system cholesterol absorption (serum 3H-cholesterol). Put plainly: In Vivo Assay of Hypolipidemic Agents using the Rat Cholesterol Absorption Model. More on the design: species or system Sprague-Dawley rats. To be noted: peroral; for inhibition in vivo at 1 mg/kg: po, serum 3H-cholesterol 3 h after cholesterol dose, vs vehicle control; for % inhibition at 0.3 mg/kg: 0.3 mg/kg (footnote 6). The procedure: In Vivo Assay of Hypolipidemic Agents using the Rat Cholesterol Absorption Model. This model is based on models described by Burnett et al (2002), Bioorg. Med. Chem. Lett. 2002 Feb. 11;12(3):315-8 and J. Lipid Res. 1999 October;40(10):1747-57. Female Sprague-Dawley rats weighing 150-250 g are separated into groups of […] and fasted overnight. The animals (4-6/group) are dosed perorally with 300 μL test compounds in olive oil or suitable vehicle. Thirty minutes later, 3-5 microCuries ^3H-cholesterol per rat are delivered perorally in 300 μL olive oil. After three hours, 200 μL serum is collected, vortexed with scintillation fluid, and measured for radioactivity in a scintillation counter. Percent inhibition is defined as 100*(1−Ctest/Cctrl), where Ctest and Cctl refer to ^3H levels in serum for the test compound and for the vehicle only control, respectively. Percent inhibition values are reported for a fixed dose. The ED50 is the dose at which the half-maximal effect on serum ^3H levels is observed for a given test compound.
Representative compounds of the invention were tested in the Rat Cholesterol Absorption model above.

The mark [1] stands for this setting: serum 3H-cholesterol vs vehicle control.

For the molecule `O=C1[C@H](CC[C@H](O)c2ccc(F)cc2)[C@@H](c2ccc(-c3cccc([C@@H]4O[C@H](CO)[C@@H](O)[C@H](O)[C@H]4O)c3)cc2)N1c1ccccc1` [Example 64, (1S)-1,5-Anhydro-1-(4′-{(2S,3R)-3-[(3S)-3-(4-fluorophenyl)-3-hydroxypropyl]-4-oxo-1-phenylazetidin-2-yl}biphenyl-3-yl)-D-glucitol], the inhibition in vivo (in general, the percentage by which the read-out fell short of the control) at 1 mg/kg came out at 67%.
`O=C1[C@H](CC[C@H](O)c2ccc(F)cc2)[C@@H](c2ccc(-c3cccc([C@@H]4O[C@H](CO)[C@@H](O)[C@H](O)[C@H]4O)c3)cc2O)N1c1ccccc1` [Example 65, (1S)-1,5-Anhydro-1-(4′-{(2S,3R)-3-[(3S)-3-(4-fluorophenyl)-3-hydroxypropyl]-4-oxo-1-phenylazetidin-2-yl}-3′-hydroxybiphenyl-3-yl)-D-glucitol]: where the note is “0.1 mg/kg (footnote 5), serum 3H-cholesterol vs vehicle control”, the “% inhibition at 0.1 mg/kg” value was 60^5%.
In the case of `O=C1[C@H](CC[C@H](O)c2ccc(F)cc2)[C@@H](c2ccc(-c3ccc([C@@H]4O[C@H](CO)[C@@H](O)[C@H](O)[C@H]4O)cc3)cc2O)N1c1ccccc1` [Example 66, (1S)-1,5-Anhydro-1-(4′-{(2S,3R)-3-[(3S)-3-(4-fluorophenyl)-3-hydroxypropyl]-4-oxo-1-phenylazetidin-2-yl}-3′-hydroxybiphenyl-4-yl)-D-glucitol], the “% inhibition at 0.3 mg/kg” value under setting [1] was 71^6%.
`O=C1[C@H](CC[C@H](O)c2ccc(F)cc2)[C@@H](c2ccc(-c3cccc([C@H](O)[C@H]4OC(O)[C@H](O)[C@@H](O)[C@@H]4O)c3)cc2)N1c1ccccc1` (stereo partly drawn) [Example 71, (6S)-6-C-(4′-{(2S,3R)-3-[(3S)-3-(4-Fluorophenyl)-3-hydroxypropyl]-4-oxo-1-phenylazetidin-2-yl}biphenyl-3-yl)-D-glucopyranose]: the inhibition in vivo at 1 mg/kg is 65%.
For `O=C1[C@H](CC[C@H](O)c2ccc(F)cc2)[C@@H](c2ccc(-c3cccc([C@@H](O)[C@H]4OC(O)[C@H](O)[C@@H](O)[C@@H]4O)c3)cc2)N1c1ccccc1` (stereo partly drawn) [Example 72, (6R)-6-C-(4′-{(2S,3R)-3-[(3S)-3-(4-Fluorophenyl)-3-hydroxypropyl]-4-oxo-1-phenylazetidin-2-yl}biphenyl-3-yl)-D-glucopyranose], the “% inhibition at 0.3 mg/kg” value under setting [1] is reported as 27^6%.
As for `O=C1[C@H](CC[C@H](O)c2ccc(F)cc2)[C@@H](c2ccc(-c3cccc([C@H](O)[C@H]4OC(O)[C@H](O)[C@@H](O)[C@@H]4O)c3)cc2O)N1c1ccccc1` (stereo partly drawn) [Example 73, (6S)-6-C-(4′-{(2S,3R)-3-[(3S)-3-(4-Fluorophenyl)-3-hydroxypropyl]-4-oxo-1-phenylazetidin-2-yl}-3′-hydroxybiphenyl-3-yl)-D-glucopyranose], 1 mg/kg produced 59% inhibition in vivo.
On the same count and under the same terms, to `O=C1[C@H](CC[C@H](O)c2ccc(F)cc2)[C@@H](c2ccc(-c3cccc([C@@H](O)[C@H]4OC(O)[C@H](O)[C@@H](O)[C@@H]4O)c3)cc2O)N1c1ccccc1` (stereo partly drawn) [Example 74, (6R)-6-C-(4′-{(2S,3R)-3-[(3S)-3-(4-Fluorophenyl)-3-hydroxypropyl]-4-oxo-1-phenylazetidin-2-yl}-3′-hydroxybiphenyl-3-yl)-D-glucopyranose] belongs 67%; to `O=C1[C@H](CC[C@H](O)c2ccc(F)cc2)[C@@H](c2ccc(-c3cccc([C@H](O)[C@@H](O)[C@@H](O)[C@H](O)[C@@H](O)CO)c3)cc2O)N1c1ccccc1` [Example 75, (6S)-6-C-(4′-{(2S,3R)-3-[(3S)-3-(4-Fluorophenyl)-3-hydroxypropyl]-4-oxo-1-phenylazetidin-2-yl}-3′-hydroxybiphenyl-3-yl)-D-glucitol], 68%; to `O=C1[C@H](CC[C@H](O)c2ccc(F)cc2)[C@@H](c2ccc(-c3cccc(OC[C@H]4OC(O)[C@H](O)[C@@H](O)[C@@H]4O)c3)cc2)N1c1ccc(F)cc1` (stereo partly drawn) [Example 76, 6-O-(4′-{(2S,3R)-1-(4-Fluorophenyl)-3-[(3S)-3-(4-fluorophenyl)-3-hydroxypropyl]-4-oxoazetidin-2-yl}biphenyl-3-yl)-D-glucopyranose], 56%.
The same measure, in the same setting: to `CO[C@H]1O[C@H](COc2cccc(-c3ccc([C@@H]4[C@@H](CC[C@H](O)c5ccc(F)cc5)C(=O)N4c4ccc(F)cc4)cc3)c2)[C@@H](O)[C@H](O)[C@H]1O` [Example 77, Methyl 6-O-(4′-{(2S,3R)-1-(4-fluorophenyl)-3-[(3S)-3-(4-fluorophenyl)-3-hydroxypropyl]-4-oxoazetidin-2-yl}biphenyl-3-yl)-α-D-glucopyranoside] belongs 70%; to `O=C1[C@H](CC[C@H](O)c2ccc(F)cc2)[C@@H](c2ccc(-c3cccc(OC[C@@H](O)[C@@H](O)[C@H](O)[C@@H](O)CO)c3)cc2)N1c1ccc(F)cc1` [Example 78, 6-O-(4′-{(2S,3R)-1-(4-Fluorophenyl)-3-[(3S)-3-(4-fluorophenyl)-3-hydroxypropyl]-4-oxoazetidin-2-yl}biphenyl-3-yl)-D-glucitol], 51%; to `COc1ccc(-c2ccc([C@@H]3[C@@H](CC[C@H](O)c4ccc(F)cc4)C(=O)N3c3ccc(F)cc3)cc2)cc1OC` [Example 81, (3R,4S)-4-(3′,4′-dimethoxybiphenyl-4-yl)-1-(4-fluorophenyl)-3-[(3S)-3-(4-fluorophenyl)-3-hydroxypropyl]azetidin-2-one], 17%.
Still for that read-out and setting: to `CSc1cccc(-c2ccc([C@@H]3[C@@H](CC[C@H](O)c4ccc(F)cc4)C(=O)N3c3ccc(F)cc3)cc2)c1` [Example 82, (3R,4S)-1-(4-fluorophenyl)-3-[(3S)-3-(4-fluorophenyl)-3-hydroxypropyl]-4-[3′-(methylthio)biphenyl-4-yl]azetidin-2-one] belongs 28%; to `CN(C)c1cccc(-c2ccc([C@@H]3[C@@H](CC[C@H](O)c4ccc(F)cc4)C(=O)N3c3ccc(F)cc3)cc2)c1` [Example 83, (3R,4S)-4-[3′-(dimethylamino)biphenyl-4-yl]-1-(4-fluorophenyl)-3-[(3S)-3-(4-fluorophenyl)-3-hydroxypropyl]azetidin-2-one], 38%; to `C=Cc1ccc(-c2ccc([C@@H]3[C@@H](CC[C@H](O)c4ccc(F)cc4)C(=O)N3c3ccc(F)cc3)cc2)cc1` [Example 84, (3R,4S)-1-(4-fluorophenyl)-3-[(3S)-3-(4-fluorophenyl)-3-hydroxypropyl]-4-(4′-vinylbiphenyl-4-yl)azetidin-2-one], 51%.
The molecule `COc1ccc(C=O)c(-c2ccc([C@@H]3[C@@H](CC[C@H](O)c4ccc(F)cc4)C(=O)N3c3ccc(F)cc3)cc2)c1` [Example 85, 4′-{(2S,3R)-1-(4-fluorophenyl)-3-[(3S)-3-(4-fluorophenyl)-3-hydroxypropyl]-4-oxoazetidin-2-yl}-5-methoxybiphenyl-2-carbaldehyde] showed an inhibition in vivo at 1 mg/kg of 15%.
In turn, `Nc1cccc(-c2ccc([C@@H]3[C@@H](CC[C@H](O)c4ccc(F)cc4)C(=O)N3c3ccc(F)cc3)cc2)c1` [Example 86, (3R,4S)-4-(3′-aminobiphenyl-4-yl)-1-(4-fluorophenyl)-3-[(3S)-3-(4-fluorophenyl)-3-hydroxypropyl]azetidin-2-one] returned an inhibition in vivo at 1 mg/kg of 35%.
The same measure, in the same setting: to `O=C1[C@H](CC[C@H](O)c2ccc(F)cc2)[C@@H](c2ccc(-c3ccc4c(c3)OCCO4)cc2)N1c1ccc(F)cc1` [Example 87, (3R,4S)-4-[4-(2,3-dihydro-1,4-benzodioxin-6-yl)phenyl]-1-(4-fluorophenyl)-3-[(3S)-3-(4-fluorophenyl)-3-hydroxypropyl]azetidin-2-one] belongs 59%; to `O=C(O)Cc1ccc(-c2ccc([C@@H]3[C@@H](CC[C@H](O)c4ccc(F)cc4)C(=O)N3c3ccc(F)cc3)cc2)cc1` [Example 88, (4′-{(2S,3R)-1-(4-fluorophenyl)-3-[(3S)-3-(4-fluorophenyl)-3-hydroxypropyl]-4-oxoazetidin-2-yl}biphenyl-4-yl)acetic Acid], 30%.
The same measure, in the same setting: to `COC(=O)c1ccc(-c2ccc([C@@H]3[C@@H](CC[C@H](O)c4ccc(F)cc4)C(=O)N3c3ccc(F)cc3)cc2)cc1` [Example 89, methyl 4′-{(2S,3R)-1-(4-fluorophenyl)-3-[(3S)-3-(4-fluorophenyl)-3-hydroxypropyl]-4-oxoazetidin-2-yl}biphenyl-4-carboxylate] belongs 45%.
On the same count and under the same terms, to `Cc1cc(C)cc(-c2ccc([C@@H]3[C@@H](CC[C@H](O)c4ccc(F)cc4)C(=O)N3c3ccc(F)cc3)cc2)c1` [Example 90, (3R,4S)-4-(3′,5′-dimethylbiphenyl-4-yl)-1-(4-fluorophenyl)-3-[(3S)-3-(4-fluorophenyl)-3-hydroxypropyl]azetidin-2-one] belongs 27%; to `O=C1[C@H](CC[C@H](O)c2ccc(F)cc2)[C@@H](c2ccc(-c3ccc4ccccc4c3)cc2)N1c1ccc(F)cc1` [Example 91, (3R,4S)-1-(4-fluorophenyl)-3-[(3S)-3-(4-fluorophenyl)-3-hydroxypropyl]-4-[4-(2-naphthyl)phenyl]azetidin-2-one], 56%.
The molecule `O=C1[C@H](CC[C@H](O)c2ccc(F)cc2)[C@@H](c2ccc(-c3cccc(C(F)(F)F)c3)cc2)N1c1ccc(F)cc1` [Example 92, (3R,4S)-1-(4-fluorophenyl)-3-[(3S)-3-(4-fluorophenyl)-3-hydroxypropyl]-4-[3′-(trifluoromethyl)biphenyl-4-yl]azetidin-2-one] came in with an inhibition in vivo at 1 mg/kg of 17%.

Source of the values: patent US7320972B2, “4-Biarylyl-1-phenylazetidin-2-ones” (Microbia, Inc., priority 2003, dated 2008).
